Results on three molecules are retold here after paper PMC9866629, “Pharmacokinetics of Novel Furoxan/Coumarin Hybrids in Rats Using LC-MS/MS Method and Physiologically Based Pharmacokinetic Model” (Molecules, 2023).

Data set [1] is described as follows: Free drug fraction (fu) in rat plasma by ultrafiltration. It counts as in vitro ADME. The procedure:
The fu of furoxan/coumarin hybrids in plasma was measured through the ultrafiltration method by using Amicon Ultra-15 ultrafiltration centrifuge tube (0.5 mL, 3-kDa membrane, Millipore, Bedford, MA, USA). […] One batch was incubated in a shaking water bath at 37 °C for 30 min, and the other batch was incubated for 60 min. After incubation, a plasma sample was transferred into ultrafiltration tube and centrifuged at 10,000 rpm for 20 min. The free compound in the filtrated fraction was determined directly by LC-MS/MS. All experiments were performed in triplicate.

Data set [2] in a line: Blood-to-plasma concentration ratio (B/P) in rat blood. It counts as in vitro ADME. Conditions: 37 °C, 1 μg/mL (CY-14S-4A83, CY-16S-4A43), 5 μg/mL (CY-16S-4A93). The procedure: Two batches of blood samples were prepared in parallel. One batch of the blood samples was then incubated in a shaking water bath at 37 °C for 30 min, and the other batch was incubated for 60 min. After incubation, one 150 μL aliquot of blood samples was centrifuged at 1500 rpm for 5 min, and the concentrations of the testing compound in the resulting plasma portion after extraction were determined by LC-MS/MS. In parallel, another 50 uL aliquot of the blood incubation sample was transferred into an Eppendorf tube and lysed by three-cycle freeze/thaw method. After the cell-lysis and extraction, the concentration of testing compound in the whole blood sample was determined by LC-MS/MS. The B/P was determined directly by the ratio of drug concentration in the whole blood to the plasma concentration. All experiments were performed in triplicate.

Data set [3] in a line: In vitro intrinsic clearance, disappearance via rat liver microsomes. In kind it is in vitro ADME. The note with it: for microsomal CLint: Sprague Dawley, rat, pooled liver microsomes, pH 7.4, rat hepatic microsomes; for microsomal CLint / CLint: Vmax divided by Km; for Km at 20 min: pooled rat liver microsomes, pH 7.4; for Km at 20 min / Vmax: rat hepatic microsomes 0.2 mg protein/mL, NADPH 1 mM, 20 min; for CLint: rat hepatic microsomes. The procedure:
The incubation mixture with a final volume of 50 μL contained the testing compound, rat liver microsomes (0.2 mg protein/mL), phosphate buffer ([…], pH 7.4), and NADPH (1 mM). Before adding NADPH, the reaction mixture was preincubated in a shaking water bath at 37 °C for 5 min. 200 μL of methanol–acetonitrile mixture (1:1) containing IS was added to terminate the reaction after incubation for 20 min. Concentration of the testing compound was determined by LC-MS/MS after centrifugation at 14,000 rpm for 15 min. […] All experiments were performed in triplicate.
(§1) Vmax and Km were estimated via the nonlinear regression of the Michaelis–Menten model by using GraphPad Prism (Version 6.01, http://www.graphpad.com/). The PK parameters were determined from drug plasma concentration-time data by employing a noncompartmental approach using Phoenix WinNonlin (version 3.0).
In general terms: Microsomes from liver hold many membrane-bound enzymes, among them those of drug oxidation.

Data set [4] is described as follows: Pharmacokinetic study after intravenous administration to rats. Conditions: for clearance / AUC(0-inf) / Cmax / MRT / Tmax / Vd / half-life / AUC(0-t): rat, plasma; for AUC(0-t): read-out: AUC(0–24 h). It counts as in vivo, rat. The procedure:
Rats were randomly divided into three groups, namely A, B, and C, with six rats in each group. […] Blood samples (0.15–0.2 mL) were collected through the femoral artery into an Eppendorf tube moistened with heparinized 0.9% NaCl before intravenous injection (0 h) and at 0.083, 0.25, 0.5, 1, 2, 4, 8, 12, and 24 h after intravenous injection. The blood sample was immediately centrifuged at 3000 rpm for 10 min at a temperature of 4 °C, and the upper plasma sample was collected and stored at −80 °C until analysis.
The plasma samples were thawed at room temperature before determination. Further, 20 μL of plasma was pipetted into a 1.5 mL Eppendorf tube, and 80 μL of methanol–acetonitrile (1:1, v/v) solution containing 200 ng/mL IS was added to precipitate the proteins. The contents were mixed thoroughly via vortexing the plasma sample for 40 s. The supernatant was aspirated for LC-MS/MS analysis after centrifugation at 14,000 rpm for 15 min.
as §1

Data set [5] in a line: PBPK modeling (Simcyp Rat). The note with it: blood, intravenous, in rats, calculated on the basis of B/P and the plasma clearance rate, read-out: liver blood clearance. From the text: PBPK models were constructed with physical chemistry and in vitro PK parameters, such as molecular weight (MW), octanol–buffer partition coefficient (log Po:w), compound type, pKa, B/P, fu, and CLint, using Simcyp (Simcyp Rat Version 16, Sheffield, UK). Two physical chemistry parameters of log Po:w and pKa were predicted on the basis of the structure of the chemicals by using the ADMET Predictor (v.9.0, Lancaster, http://www.simulations-plus.com/, accessed on 9 September 2019). Other parameters, including B/P, fu, and CLint, were obtained through in vitro experiments as mentioned above. The time course of xenobiotic concentration in plasma was simulated, and the PBPK models were further optimized on the basis of the experimental in vivo PK parameters (AUC, Cmax, and time to reach Cmax (Tmax)). The prediction accuracy of the PBPK model was evaluated by introducing the deviation (fold error) of the predicted PK parameters and comparing them with the experimental ones. The equation of the fold error is shown below. A simulation with fold errors no greater than 2 is acceptable [36, 42]. (1) fold error=observed parameter/predicted parameter;if observed value>predicted value (2) fold error=predicted parameter/observed parameter;if predicted value>observed value

Data set [6] is described as follows: Stability test of QC plasma samples (LC-MS/MS validation). In kind it is physicochemical, rat. The note with it: QC plasma samples 20–800 ng/mL, frozen at −80 °C for one week, n = 5. The procedure: The concentration of the testing compound was calculated by using the calibration curves with seven dots (10, 25, 50, 100, 250, 500, and 1000 ng/mL). The calibration line was constructed by plotting the peak area ratio (y-axis) of analytes to IS versus the nominal concentration (x-axis). The specificity and selectivity were investigated by comparing the chromatograms of blank plasma samples with the corresponding samples spiked with testing compounds. The signal-to-noise ratio (S/N) of the lower limit of quantification (LLOQ) was at least at 10. The linearity of the calibration graph was validated, and the calculated concentrations of the calibration standards should be all within ±15% of the nominal value, except for the LLOQ of ±20%. The linear correlation coefficient (R^2) should be 0.9900 or greater. The intra- and interday precisions and accuracy of the method were assessed by determining the quality control (QC) samples of […] (six samples at each concentration level) over 3 consecutive days. The coefficient of variation (CV) should not exceed 20% at LLOQ and should be within 15% for QCs. The relative error (RE) should be within 80%–120% at LLOQ and within 85%–115% for QCs. Recovery was assessed by comparing peak area of nominal QC plasma samples with peak area of the spike-after extraction samples (six samples at each concentration level). The matrix effect was evaluated by comparing peak area of the spike-after extraction samples with that of the analytes spiked in pure water (six samples at each concentration level). The recovery and matrix factor should be within 85%–115%. The variation in recovery and matrix effect should be less than 15%. The dilution integrity test was performed for samples exceeding the upper limit of quantification (ULOQ). QCs were prepared (5 samples at each concentration level) and frozen at […] for one week. LC-MS/MS analysis was performed to calculate the stability (RE). Samples of 25 μg/mL (n = 6) were diluted with blank matrix to 0.5 μg/mL, which was within the calibration line range, and the RE should be within 85–115%.

The mark [7] stands for this setting: 1.67 mg/kg, experimental value compared with PBPK prediction, read-out: experimental CL.
Where [8] appears, read: single dose 1.67 mg/kg, read-out: CL (converted).

Structures are written as SMILES. Where “and” joins values, the source holds several entries; their conditions need not be identical. Equal values may be shown once. Read-outs that look alike come from different tables or passages of the source. A value given as a limit tells only on which side of the number the result lay.

By fraction unbound is commonly meant the share of the substance not bound to proteins or other matrix. Read a high fraction unbound as weak binding. A word on the microsomal CLint: it is the capacity of the preparation to metabolise the compound, expressed as a volume cleared per time. A higher microsomal CLint goes with faster metabolism. What is called Km is the substrate concentration at which the rate is half of its maximum. A word on the AUC(0-inf): it is total exposure, with the tail of the curve extrapolated. Usually Cmax stands for the maximum level reached in the sampled fluid or tissue. For orientation: MRT means a mean duration of stay, worked out from the concentration-time curve. A word on the Tmax: it is the time from dosing to the highest level. One may read the Vd as a proportionality between amount in the body and measured concentration, not a real space. Lower therefore signals little distribution into tissue. A word on the half-life: it is how long it takes for the measured level to halve. A higher half-life goes with slow loss. As for `Cc1c(Cc2ccc(F)cc2)c(=O)oc2cc(OCCOc3no[n+]([O-])c3S(=O)(=O)c3ccccc3)ccc12` [CY-14S-4A83], in data set [1] (rat, fresh rat plasma), the fraction unbound at 30 min came to 0.0298 ± 0.002 and the fraction unbound at 60 min turned out to be 0.0217 ± 0.0003. The f u in data set [1] (value used in the PBPK modeling) is reported as 0.02. In data set [2] (incubation time 30 min), the B/P is on record as 12.11 ± 0.094. Besides, in data set [2] (incubation time 60 min), the B/P is 12.34 ± 0.03. Besides, in data set [3], the microsomal CLint was 336 µL/min/mg; the Km at 20 min was determined as 18 ± 2.3 µM; the Vmax was 6044.0 pmol/min/mg Protein and 6044.0 ± 290.8 pmol/min/mg Protein; the CLint came out at 336.033 µL/min/mg. In data set [4] (0.5 mg/kg), the “plasma concentration within 24 h (stays above LLOQ)” value was > 10 ng/mL. In data set [4] (0.5 mg/kg, experimental value compared with PBPK prediction, read-out: experimental CL), the clearance is 1.73 mL/min. Moreover, in data set [4] (single dose 0.5 mg/kg), the AUC(0-inf) stood at 1340 ± 475 ng·h/mL, the Cmax is 946 ± 452 ng/mL, the MRT amounted to 366 ± 90 min and the Tmax is 12 ± 12 min. In addition, in data set [4] (single dose 0.5 mg/kg), the Vd is 0.56 ± 0.15 L/kg, the half-life is 60 ± 12 min and the AUC(0-t) was determined as 1310 ± 462 ng·h/mL. Besides, in data set [4] (single dose 0.5 mg/kg, read-out: CL (converted)), the clearance was 6.91 mL/min/kg. Further, the clearance in data set [5] is 0.23 mL/min. Further, the “Stability (RE)” value in data set [6] was 88–94.4%.

With `Cc1c(Cc2ccc(C#N)cc2)c(=O)oc2cc(OCCOc3no[n+]([O-])c3S(=O)(=O)c3ccccc3)ccc12` [CY-16S-4A43], in data set [3], the intrinsic clearance (microsomal CLint) was found to be 333 µL/min/mg; the Km at 20 min came to 1.4 ± 0.3 µM; the Vmax was 481.2 pmol/min/mg Protein and 481.2 ± 30.0 pmol/min/mg Protein. For the same molecule, the “time within which plasma concentration dropped to less than 10 ng/mL” value in data set [4] (1.67 mg/kg) was 2 to 4 h. Moreover, the clearance in data set [4] (setting [7]) was 10.9 mL/min. Besides, in data set [4] (single dose 1.67 mg/kg), the AUC(0-inf) came to 673 ± 182 ng·h/mL, the Cmax is 1210 ± 482 ng/mL, the MRT was 270 ± 60 min and the Tmax came to 6 ± 6 min. In data set [4] (single dose 1.67 mg/kg), the Vd was 2.03 ± 0.63 L/kg, the half-life was 30 ± 6 min and the AUC(0-t) was 669 ± 182 ng·h/mL. Moreover, the clearance in data set [4] (setting [8]) was 43.7 mL/min/kg. In addition, the clearance in data set [5] was 1.87 mL/min. For the same molecule, the “Stability (RE)” value in data set [6] is 86–99.5%.

With `Cc1c(Cc2ccc(C(F)(F)F)cc2)c(=O)oc2cc(OCCOc3no[n+]([O-])c3S(=O)(=O)c3ccccc3)ccc12` [CY-16S-4A93], in data set [3], the microsomal CLint is 174 µL/min/mg, the Km at 20 min is 1.3 ± 0.2 µM and the Vmax amounted to 220.0 pmol/min/mg Protein. In data set [3] (listed as CY-14S-4A93), the Vmax was 220.0 ± 14.1 pmol/min/mg Protein and the CLint came out at 173.83 µL/min/mg. Besides, in data set [4] (1.67 mg/kg), the “plasma concentration within 24 h (stays above LLOQ)” value was > 10 ng/mL. Also, the clearance in data set [4] (setting [7]) is 2.08 mL/min. In data set [4] (single dose 1.67 mg/kg), the AUC(0-inf) stood at 3850 ± 1770 ng·h/mL, the Cmax was determined as 9380 ± 4210 ng/mL, the MRT is 132 ± 42 min and the Tmax turned out to be 6 min. In addition, in data set [4] (single dose 1.67 mg/kg), the Vd was found to be 0.68 ± 0.38 L/kg, the half-life is 54 ± 12 min and the AUC(0-t) was 3850 ± 1770 ng·h/mL. Besides, the clearance in data set [4] (setting [8]) is 8.34 mL/min/kg. Moreover, the clearance in data set [5] was 0.24 mL/min. Besides, the “Stability (RE)” value in data set [6] is reported as 86.5–94.7%.
